“And” between values parts separate entries of the source, which are not always exact repeats. Identical values can stand only once. “Also recorded” adds a separate entry of the source.
Legend:
BorH [1] = target: T1, BorH (uncultured bacterium, UniProt M9QSI0); experiment: Isothermal titration calorimetry, ligand into BorH; format: binding, uncultured soil actinomycetes
Procedure: (§1) Solutions of AbeH, BorH, FAD (Chem-Implex), and Trp (Acros Organics) were prepared in the same buffer and degassed under vacuum at 30 °C for 20 min before loading in the syringe or cell. To analyze formation of binary complexes, AbeH or BorH was placed inside the cell, and ligand (FAD or Trp) was injected. For ternary complex titration, one ligand was preincubated with the macromolecule for 30 min at 30 °C to form binary complexes of AbeH/FAD, AbeH/Trp, BorH/FAD, and BorH/Trp before titrating with the second ligand. To test FADH2 binding to AbeH and BorH, FAD was reduced to FADH2 using sodium dithionite and stored under N2. Formation of FADH2 by sodium dithionite was verified using absorbance and fluorescence spectrophotometry.
(§2) ITC experiments were performed with reference power set to 10 μcal/s and Milli-Q water in the reference cell. All experiments were done with a pretitration delay of 20 min, a 5 min interval between injections, and a filter period of 2 s in high feedback gain mode. All experiments were performed at 310 rpm to mix the components in cell and titrant. All other VP-ITC instrumental parameters were set to default settings. Heats of dilution for all titrants were measured by titrating ligand into buffer for binary complex titrations, and by titrating ligand into a solution containing the other ligand but no protein for ternary complex titration.
(§3) Titrations were analyzed by manually integrating each injection, subtracting the heat of dilution, and carrying out nonlinear least-squares fit of the calorimetric binding data to a one-site model using Origin 7.0 (Origin Lab). Trp binding experiments were subtracted by point-by-point heat of dilution, and FAD and FADH2 binding experiments were subtracted using the mean heat of the last three injections. For the Trp binding data, n was fixed to 1 based on expected stoichiometry of 1:1 based on FDH crystal structures and as proposed for lower c-value titrations in the literature.[23],[25],[82] The other parameters were not constrained during fitting.

BorH [2] = target: T1, BorH; experiment: Quenching of BorH intrinsic Trp fluorescence upon FAD titration; parameters: species or system uncultured soil actinomycetes; conditions: 100 nM BorH; read-out: KD, FAD binding to BorH, BorH intrinsic Trp fluorescence
Procedure: (§4) Intrinsic tryptophan fluorescence spectroscopy was used to measure FAD binding to AbeH and BorH in 20 mM HEPES pH 7.7- and 50 mM sodium citrate. FAD was prepared in the same buffer and its concentration was determined spectrophotometrically as described earlier. Fluorescence experiments were performed as described earlier. FAD binding to apo-AbeH or apo-BorH was performed in duplicate with 100 nM fixed AbeH or BorH with variable FAD concentrations up to 30 and 70 μM, respectively. AbeH/FAD binding was monitored using excitation at 295 nm and emission at 328 nm. BorH/FAD binding was monitored using excitation at 290 nm and emission at 326 nm. Inner filter effect corrected fluorescence intensities were plotted against quenched intrinsic tryptophan fluorescence of AbeH and BorH. Data were fitted by nonlinear regression to eq 1 using GraphPad Prism 8.0.
(§5) Figure S9: FAD binding determined by quenching of BorH and AbeH intrinsic Trp fluorescence.
(§6) A. Variable concentrations of FAD (0-70 µM) were incubated with 100 nM BorH and Trp fluorescence was measured with excitation at 290 nm and emission at 326 nm. […]
(§7) B. Variable concentrations of FAD (0-30 µM) were incubated with 100 nM AbeH and Trp fluorescence was measured […] with excitation at 295 nm and emission at 328 nm. […]

AbeH [3] = target: T2, AbeH (uncultured bacterium, UniProt F6LWA5); experiment: Isothermal titration calorimetry, ligand into AbeH; format: binding, uncultured soil actinomycetes
T2 sequence (F6LWA5 entry or part of it): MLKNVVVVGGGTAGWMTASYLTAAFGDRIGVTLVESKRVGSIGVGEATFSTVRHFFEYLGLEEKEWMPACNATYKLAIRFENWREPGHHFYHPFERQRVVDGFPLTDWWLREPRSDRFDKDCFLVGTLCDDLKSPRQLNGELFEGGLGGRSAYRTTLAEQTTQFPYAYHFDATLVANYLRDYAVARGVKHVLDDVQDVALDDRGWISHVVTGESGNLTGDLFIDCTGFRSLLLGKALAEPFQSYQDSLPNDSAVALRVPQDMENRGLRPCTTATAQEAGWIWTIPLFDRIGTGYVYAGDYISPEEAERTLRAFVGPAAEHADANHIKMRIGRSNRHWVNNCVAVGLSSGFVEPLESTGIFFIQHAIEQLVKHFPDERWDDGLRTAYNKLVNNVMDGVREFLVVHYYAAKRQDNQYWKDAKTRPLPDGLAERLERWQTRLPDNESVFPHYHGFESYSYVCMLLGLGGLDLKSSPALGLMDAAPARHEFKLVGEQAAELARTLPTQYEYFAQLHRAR
Procedure: as §1, with “ITC experiments were performed using a VP-ITC isothermal titration calorimeter (MicroCal) in 20 mM HEPES pH 7.5, 350 mM NaCl, 1 mM ethylenediamine tetraacetic acid (EDTA) and 15% (v/v) glycerol. Solutions” for “Solutions”
as §2
1.2 mM FAD (2 μL/1 and 5 μL/19 injections) into 18 μM AbeH (Figure 4A)
0.12 mM FADH2 (2 μL/1 and 15 μL/19 injections) into 7 μM AbeH in the presence of sodium dithionite (Figure 4B)
1.4 mM Trp (3 μL/1 and 10 μL/29 injections) into 43 μM AbeH (Figure S7)
16 mM Trp (2 μL/1 and 10 μL/29 injections) into 18 μM AbeH (Figure 5A)
as §3

AbeH [4] = target: T2, AbeH; experiment: Quenching of AbeH intrinsic Trp fluorescence upon FAD titration; parameters: species or system uncultured soil actinomycetes; conditions: FAD binding to AbeH, 100 nM AbeH
Procedure: as §4, §5, §6, §7

AbeH/FAD = experiment: Isothermal titration calorimetry, Trp into AbeH preincubated with FAD; format: binding, uncultured soil actinomycetes
Procedure: as §1, with “ITC experiments were performed using a VP-ITC isothermal titration calorimeter (MicroCal) in 20 mM HEPES pH 7.5, 350 mM NaCl, 1 mM ethylenediamine tetraacetic acid (EDTA) and 15% (v/v) glycerol. Solutions” for “Solutions”, “To test FADH2 binding to AbeH and BorH, FAD was reduced to FADH2 using sodium dithionite and stored under N2.” left out
ITC experiments were performed with reference power set to 10 μcal/s and Milli-Q water in the reference cell. […] Heats of dilution for all titrants were measured by titrating ligand into buffer for binary complex titrations, and by titrating ligand into a solution containing the other ligand but no protein for ternary complex titration. […]
Titrations were analyzed by manually integrating each injection, subtracting the heat of dilution, and carrying out nonlinear least-squares fit of the calorimetric binding data to a one-site model using Origin 7.0 (Origin Lab). […]

[5] = ITC, read-out: KD, binding to BorH, ITC

T1 sequence (M9QSI0 1-529): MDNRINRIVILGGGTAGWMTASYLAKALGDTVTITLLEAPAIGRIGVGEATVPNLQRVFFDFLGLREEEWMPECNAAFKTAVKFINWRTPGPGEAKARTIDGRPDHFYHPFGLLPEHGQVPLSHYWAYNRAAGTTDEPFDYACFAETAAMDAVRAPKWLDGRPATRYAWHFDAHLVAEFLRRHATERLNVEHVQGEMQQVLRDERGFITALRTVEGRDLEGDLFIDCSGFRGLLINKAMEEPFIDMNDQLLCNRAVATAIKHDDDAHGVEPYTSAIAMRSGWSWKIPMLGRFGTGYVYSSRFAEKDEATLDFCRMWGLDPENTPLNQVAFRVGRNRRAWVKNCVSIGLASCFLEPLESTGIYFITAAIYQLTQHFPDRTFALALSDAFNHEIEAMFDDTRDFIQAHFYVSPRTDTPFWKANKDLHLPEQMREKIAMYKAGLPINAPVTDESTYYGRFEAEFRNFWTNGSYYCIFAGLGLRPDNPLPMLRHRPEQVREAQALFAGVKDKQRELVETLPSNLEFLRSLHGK

With `Cc1cc2nc3c(=O)[nH]c(=O)nc-3n(C[C@H](O)[C@H](O)[C@H](O)COP(=O)(O)OP(=O)(O)OC[C@H]3O[C@@H](n4cnc5c(N)ncnc54)[C@H](O)[C@@H]3O)c2cc1C` [FAD] the Kd (BorH [1]; [5]) was 13 ± 3.3 µM, the “-TDS (-TΔS, ITC, Table S3)” value (BorH [1]; cell BorH) was 4.7 kcal/mol and the “DG (ΔG, ITC, Table S3)” value (BorH [1]; cell BorH) was -6.7 kcal/mol. For the same molecule, the “DH (ΔH, ITC, Table S3)” value (BorH [1]; cell BorH) was -11.4 ± 0.4 kcal/mol, the “n (ITC, Table S3)” value (BorH [1]; cell BorH) was 1.1 ± 0.4 and the Kd (BorH [2]) was 9.1 ± 2.4 µM. For the same molecule, the Kd (AbeH [3]; ITC, read-out: KD, binding to AbeH, ITC) was 1.2 ± 0.4 µM, the “-TDS (-TΔS, ITC, Table S3)” value (AbeH [3]; cell AbeH) was -3.6 kcal/mol and the “DG (ΔG, ITC, Table S3)” value (AbeH [3]; cell AbeH) was -8.2 kcal/mol. The “DH (ΔH, ITC, Table S3)” value (AbeH [3]; cell AbeH) was -4.6 ± 0.4 kcal/mol, the “n (ITC, Table S3)” value (AbeH [3]; cell AbeH) was 0.93 ± 0.05 and the Kd (AbeH [4]) was 0.96 µM and 1 µM.

`N[C@@H](Cc1c[nH]c2ccccc12)C(=O)O` [Tryptophan, L-tryptophan] was tested, and the “Trp affinity of BorH higher than that of AbeH” value (BorH [1]) was 2 fold, the “Trp affinity of BorH lower than the FAD affinity” value (BorH [1]) was 30 × and the Kd (BorH [1]; [5]) was 430 ± 60 µM. For the same molecule, the “-TDS (-TΔS, ITC, Table S3)” value (BorH [1]; cell BorH) was -0.5 kcal/mol, the “DG (ΔG, ITC, Table S3)” value (BorH [1]; cell BorH) was -4.6 kcal/mol and the “DH (ΔH, ITC, Table S3)” value (BorH [1]; cell BorH) was -4.1 ± 0.3 kcal/mol. The Kd (BorH [1]; cell BorH, read-out: KD (ITC, Table S3)) was 435 µM, the Kd (BorH [1]; one-site model, n fixed to 1, read-out: KD for Trp/BorH, ITC) was 400 µM and the “Binding of Trp to preincubated AbeH/FAD by ITC, in words” value (AbeH/FAD; 27 mM Trp into 48 μM AbeH preincubated with 3.3 mM FAD, listed as Trp) was “No binding was observed; also recorded: no evidence of Trp binding”. The “KD, Trp binding to AbeH/FAD, ITC” value (AbeH/FAD; AbeH preincubated with FAD) was “no binding”, the “Trp affinity of AbeH lower than the FAD affinity” value (AbeH [3]) was 500 × and the Kd (AbeH [3]; KD (ITC, Table S3), cell AbeH) was 833 µM. For the same molecule, the Kd (AbeH [3]; KD for Trp/AbeH, ITC, one-site model, n fixed to 1) was 800 µM, the “Heat of binding, Trp titrated into AbeH at low molar ratios” value (AbeH [3]; Trp:AbeH molar ratios between 0-9, 1.4 mM Trp into 43 μM AbeH) was “no significant heat of binding detected” and the “-TDS (-TΔS, ITC, Table S3)” value (AbeH [3]; cell AbeH) was 0.4 kcal/mol. The “DG (ΔG, ITC, Table S3)” value (AbeH [3]; cell AbeH) was -4.3 kcal/mol and the “DH (ΔH, ITC, Table S3)” value (AbeH [3]; cell AbeH) was -4.7 ± 0.4 kcal/mol.

From PMC11840605, “Crystallographic and Thermodynamic Evidence of Negative Coupling in the Flavin-Dependent Tryptophan Halogenases AbeH and BorH” (ACS Omega, 2025)
